Measured values: patent publication US20080299638A1 (priority 2004, published 2008)
Values after ≈ are worked out from the molar mass of the structure shown. Values joined by “and” are separate entries in the source; they are usually repeats but may differ in a detail not shown here. Identical values can stand only once.

Legend:
[1] = test system: HBV-DNA in supernatant of 2.2.15 cell culture; test: HBV-DNA dot blot in supernatant of 2.2.15 cell culture; format: cell-based, hepatitis B virus; conditions: day 8; for HBV-DNA in cell culture supernatant, CPM: control 3808.34
Protocol: Extraction of HBV-DNA from 2.2.15 cells supernatant: Grow 200000 cells/ml 2.2.15 cell on 24-well plate, 1 ml per well, add drugs after 24 hours incubation, change drug solution every 4 days with the same concentration, collect supernatant from cell culture after 8 days of incubation counted from the day drugs added into the culture, precipitate with polyethylene glycol, digest with proteinase K, extract with phenol:chloroform:isopentanol, nucleic acid precipitation by absolute ethanol and so on procedures, vacuum dry, re-dissolve in TE buffer as sample.
Dot blot: place dots: take 20 μl sample (contains 25 μg DNA), denature, neutralize, serial dilute 20×SSC buffer to 1:8 dilution on nitrocellulose membrane, oven dry, pre-hybridize, hybridize, wash membrane, radioactive self exposure and so on procedures. Develop X ray film with conventional method. Scan developed film with scanner, measure density with gel-pro software, calculate suppression rate and IC50.

HBsAg = test: Suppression of HBsAg secretion in 2.2.15 cells (radioimmunoassay, cpm); format: cell-based, hepatitis B virus
Protocol: (§1) Grow 200000 cells/ml 2.2.15 cell on 24-well plate, 1 ml per well, incubate for 24 hours under 5% CO2 at 37° C. […] 4 wells per concentration, incubate under 5% CO2 at 37° C., change drug solution every 4 days with the same concentration, retrieve culture medium at day 8, preserve at −20° C. Repeat experiment for 2 batches, test for HBsAg and HBeAg separately. Check cpm value for each wells using γ-counter.
(§2) Calculating drug effectiveness: calculate the mean and standard deviation of cpm from the cell control group and groups with different drug concentration, P/N value and percent suppression, IC50 and SI. • (1)
(§3) [formula] • (2) Calculate IC50 for drug suppression of antigen:
(§4) [formula] • (4) Calculate the cpm differences between HBsAg and HBeAg in different dilutions and control groups by t-test.

HBeAg = test: Suppression of HBeAg secretion in 2.2.15 cells (radioimmunoassay, cpm); format: cell-based, hepatitis B virus
Protocol: as §1, §2, §3, §4

2.2.15 cells = test: Arginase toxicity to cells (CPE method, Reed-Muench); format: cell-based, human; conditions: 8 days drug addition
Protocol: Divide experiment into control group and test groups with different drug concentration. Digest cells, dilute to 200,000 cells/ml, transfer to culture plate, 100 μl per well for 96-well plate, incubate for 24 hours under 5% CO2 at 37° C., ready for experiment when cells grown into monolayer. […] Observe cytopathological changes, 8 days or 4 days under microscope, totally destroyed is 4; 75% destroyed is 3; 50% destroyed is 2, 25% destroyed is 1; no changes is 0. Calculate TC50 and TC0 according to Reed-Muench Method:
A=log>50% drug concentration; B=log<50% drug concentration; C=log times of dilution
Starting from 40 IU/ml and subsequently 20, 10, 5, 2.5 IU/ml, change drug solution every 4 days until 8 days, observe cytopathological changes under microscope, and check for CPE with microscope.

[2] = Lamivudine 50 μg/ml, batch 1, day 8
[3] = Lamivudine 50 μg/ml, batch 2, day 8
[4] = Lamivudine 50 μg/ml, two batches average, day 8
[5] = Lamivudine 50 μg/ml, two batches average, day 8, listed as lamivudine
[6] = Lamivudine 100 μg/ml, batch 1, day 8
[7] = Lamivudine 100 μg/ml, batch 2, day 8
[8] = Lamivudine 100 μg/ml, two batches average, day 8
[9] = Lamivudine 100 μg/ml, two batches average, day 8, listed as lamivudine
[10] = Lamivudine 200 μg/ml, batch 1, day 8
[11] = Lamivudine 200 μg/ml, batch 2, day 8
[12] = Lamivudine 200 μg/ml, two batches average, day 8
[13] = Lamivudine 200 μg/ml, two batches average, day 8, listed as lamivudine
[14] = Lamivudine 400 μg/ml, batch 1, day 8
[15] = Lamivudine 400 μg/ml, batch 2, day 8
[16] = Lamivudine 400 μg/ml, two batches average, day 8
[17] = Lamivudine 400 μg/ml, two batches average, day 8, listed as lamivudine
[18] = Lamivudine 800 μg/ml, batch 1, day 8
[19] = Lamivudine 800 μg/ml, batch 2, day 8
[20] = Lamivudine 800 μg/ml, two batches average, day 8
[21] = Lamivudine 800 μg/ml, two batches average, day 8, listed as lamivudine

Nc1ccn([C@@H]2CS[C@H](CO)O2)c(=O)n1 [Lamivudine, lamivudine, reference compound]
IC50 ([1]; Hepatitis B virus, 192 h, first batch experiment): 114 µg/mL (≈ 0.496 mM)
% suppression of HBV-DNA in cell culture supernatant ([1]; Lamivudine 50 μg/ml): 25.6576%
HBV-DNA in cell culture supernatant, CPM ([1]; Lamivudine 50 μg/ml): 2831.21 CPM
% suppression of HBV-DNA in cell culture supernatant ([1]; Lamivudine 100 μg/ml): 61.5237%
HBV-DNA in cell culture supernatant, CPM ([1]; Lamivudine 100 μg/ml): 1465.31 CPM
% suppression of HBV-DNA in cell culture supernatant ([1]; Lamivudine 200 μg/ml): 71.6404%
HBV-DNA in cell culture supernatant, CPM ([1]; Lamivudine 200 μg/ml): 1080.03 CPM
% suppression of HBV-DNA in cell culture supernatant ([1]; Lamivudine 400 μg/ml): 79.1083%
HBV-DNA in cell culture supernatant, CPM ([1]; Lamivudine 400 μg/ml): 795.628 CPM
% suppression of HBV-DNA in cell culture supernatant ([1]; Lamivudine 800 μg/ml): 82.5905%
HBV-DNA in cell culture supernatant, CPM ([1]; Lamivudine 800 μg/ml): 663.013 CPM
IC50 (HBsAg; Hepatitis B virus, 192 h, read-out: HBsAg IC50): > 800 µg/mL
HBsAg (CPM) % suppression (HBsAg; [2]): 6.24%
HBsAg (CPM) % suppression (HBsAg; [3]): 0.65%
HBsAg (CPM) % suppression (HBsAg; [4]): 3.45 ± 3.95%
HBsAg (CPM) % suppression (HBsAg; [5]): 3.45±3.95%
HBsAg (CPM) % suppression (HBsAg; [6]): 12.05%
HBsAg (CPM) % suppression (HBsAg; [7]): 5.15%
HBsAg (CPM) % suppression (HBsAg; [8]): 8.6 ± 4.88%
HBsAg (CPM) % suppression (HBsAg; [9]): 8.60±4.88%
HBsAg (CPM) % suppression (HBsAg; [10]): 2.35%
HBsAg (CPM) % suppression (HBsAg; [11]): 8.99%
HBsAg (CPM) % suppression (HBsAg; [12]): 5.67 ± 4.7%
HBsAg (CPM) % suppression (HBsAg; [13]): 5.67±4.70%
HBsAg (CPM) % suppression (HBsAg; [14]): 8.10%
HBsAg (CPM) % suppression (HBsAg; [15]): 0%
HBsAg (CPM) % suppression (HBsAg; [16]): 4.05 ± 5.73%
HBsAg (CPM) % suppression (HBsAg; [17]): 4.05±5.73%
HBsAg (CPM) % suppression (HBsAg; [18]): 0%
HBsAg (CPM) % suppression (HBsAg; [19]): 9.299%
HBsAg (CPM) % suppression (HBsAg; [20]): 4.65 ± 6.58%
HBsAg (CPM) % suppression (HBsAg; [21]): 4.65±6.58%
HBsAg IC50 (HBsAg; batch 1, day 8): >800 µg/mL
HBsAg IC50 (HBsAg; two batches average, day 8): >800 ± 0 TC0 μg/ml and >800 μg/ml
IC50 (HBeAg; Hepatitis B virus, 192 h, read-out: HBeAg IC50): > 800 µg/mL
HBeAg (CPM) % suppression (HBeAg; [2]): 13.20%
HBeAg (CPM) % suppression (HBeAg; [3]): 14.99%
HBeAg (CPM) % suppression (HBeAg; [4]): 14.10 ± 1.27%
HBeAg (CPM) % suppression (HBeAg; [5]): 14.10±1.27%
HBeAg (CPM) % suppression (HBeAg; [6]): 17.48%
HBeAg (CPM) % suppression (HBeAg; [7]): 14.19%
HBeAg (CPM) % suppression (HBeAg; [8]): 15.84 ± 2.33%
HBeAg (CPM) % suppression (HBeAg; [9]): 15.84±2.33%
HBeAg (CPM) % suppression (HBeAg; [10]): 16.35%
HBeAg (CPM) % suppression (HBeAg; [11]): 19.31%
HBeAg (CPM) % suppression (HBeAg; [12]): 17.83 ± 2.09%
HBeAg (CPM) % suppression (HBeAg; [13]): 17.83±2.09%
HBeAg (CPM) % suppression (HBeAg; [14]): 12.67%
HBeAg (CPM) % suppression (HBeAg; [15]): 13.32%
HBeAg (CPM) % suppression (HBeAg; [16]): 12.99 ± 0.46%
HBeAg (CPM) % suppression (HBeAg; [17]): 12.99±0.46%
HBeAg (CPM) % suppression (HBeAg; [18]): 6.10%
HBeAg (CPM) % suppression (HBeAg; [19]): 10.37%
HBeAg (CPM) % suppression (HBeAg; [20]): 8.23 ± 3.02%
HBeAg (CPM) % suppression (HBeAg; [21]): 8.23±3.02%
HBeAg IC50 (HBeAg; batch 1, day 8): >800 µg/mL
HBeAg IC50 (HBeAg; two batches average, day 8): >800 ± 0 TC0 800 μg/ml and >800 μg/ml
TC0 (2.2.15 cells): 800 ± 0 µg/mL
TC50 (2.2.15 cells): 1198.97 µg/mL (≈ 5.23 mM)
TC0 (2.2.15 cells; listed as lamivudine): 800 ± 0 µg/mL
TC50 (2.2.15 cells; listed as lamivudine): 1198.97 ± 97.50 µg/mL and 1198.97 µg/mL
